Test results taken from US8809280B2, “Therapeutic peptides” (Lytix Biopharma AS, priority 2009, dated 2014).
Converted amounts (≈) assume the structure as drawn. Where two headings read alike, the source gives them in different places.

What was measured:
human red blood cells = assay: cells; type: cell-based
Method in brief: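 Washed heparinized RBCs, diluted to 10% hematocrit then to 1% v/v final, incubated with compounds in PBS (1–1000 μg/mL) for 1 h at 37 °C with agitation. Hemoglobin release read at 405 nm against PBS (0%) and 0.1% Triton X-100 (100%); value reported is concentration giving 50% hemolysis.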

[1] = system: Escherichia coli (ATTC 25922); assay: microbe, parasite or virus in culture; type: cell-based; details: for MIC: read-out: MIC E. coli
Method in brief: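 Broth dilution in 2% Bacto Peptone water, inoculum 2×10^6 cfu/ml of exponential-phase bacteria; compounds (di-TFA salts) tested in duplicate at 200 down to 0.5 μg/ml. Growth judged by well turbidity, with no-peptide negative and gentamicin positive controls.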

[2] = Phospholipid vesicle based barrier model permeability; type: in vitro ADME
Text: Encouraged by the theoretical calculations, the permeability of the β^2,2-amino acid derivatives was further investigated using a recently established phospholipid vesicle based barrier model (Flaten et al. Eur. J. Pharm. Sci. [2006] 27, 80-90).

α-chymotrypsin = α-chymotrypsin (Bos taurus, UniProt P00766, DEL14-15/DEL147-148); assay: Stability against α-chymotrypsin; type: in vitro ADME; details: over a period of 48 hours
Experimental: The stability testing against α-chymotrypsin was conducted by dissolving the desired compounds to 1 mg/ml in water. α-Chymotrypsin was dissolved to 0.1 mg/ml in 1 mM HCl containing 2 mM CaCl2. The enzymatic digestion was performed in 100 mM TRIS HCl containing 10 mM CaCl2. Final enzyme concentration was 2 μg/ml, and final peptide concentration was 100 μg/ml. Total volume was 0.5 ml.
15 μl samples were collected at 0, 15, 30, 60, 120 and 240 min in addition to the 24 and 48 hours samples. To the samples it was added an external standard (atenolol hydrochloride) and 100 μl 10% acetic acid to terminate digestion before it was diluted to 1 ml with water.
For every test there were done a negative control without enzyme to ensure that degradation was due to enzyme activity and not other factors. Succinyl-ala-ala-pro-phe-para nitroanhiine was used as positive control. All test were run in triplicates.

[3] = system: Staphylococcus aureus (ATTC 25923); assay: microbe, parasite or virus in culture; type: cell-based; details: for MIC: read-out: MIC S. aureus
Method in brief: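 Di-TFA salts tested in duplicate at 0.5–200 μg/ml against exponential-phase bacteria at 2×10^6 cfu/ml grown in 2% peptone water. Growth judged by well turbidity, with no-peptide and gentamicin controls.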

[4] = system: methicillin resistant Staphylococcus epidermidis (ATCC 27626); assay: microbe, parasite or virus in culture; type: cell-based; details: for MIC: read-out: MIC MRSE
Method in brief: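 Exponentially grown bacteria (2% peptone water) at 2×10^6 cfu/ml exposed in duplicate to di-TFA salts at 0.5–200 μg/ml. Growth or no growth judged by well turbidity; no-peptide and gentamicin controls included.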

[5] = system: methicillin resistant Staphylococcus aureus (ATCC 33591); assay: microbe, parasite or virus in culture; type: cell-based; details: for MIC: read-out: MIC MTRSA
Method in brief: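 Di-TFA salts tested in duplicate at 200 down to 0.5 μg/ml against exponentially grown bacteria at 2×10^6 cfu/ml. Growth judged by well turbidity, with no-peptide and gentamicin controls.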

[6] = system: Pseudomonas aeruginosa (ATCC 27853); assay: microbe, parasite or virus in culture; type: cell-based; details: for MIC: Pseudomonas aeruginosa, ATCC27853, Example 4, ATCC 27853, di-trifluoroacetate salts, highest concentration tested 200 μg/ml, read-out: MIC P. aeruginosa; for Therapeutic index P. aeruginosa: EC50 RBC divided by MIC
Experimental: Each compound was tested in duplicates at 200, 100, 50, 35, 15, 10, 5, 2.5, 1, 0.5 μg/ml. All tested compounds were di-trifluoroacetic acid salts.

[7] = Erythrocyte, Example 4, hemolytic activity, human red blood cells, highest concentration tested 1000 μg/ml, read-out: EC50 RBC
[8] = Escherichia coli, ATCC25922, Example 4, ATCC 25922, di-trifluoroacetate salts, highest concentration tested 200 μg/ml
[9] = phospholipid vesicle based barrier model
[10] = Staphylococcus aureus, ATCC25923, Example 4, ATCC 25923, di-trifluoroacetate salts, highest concentration tested 200 μg/ml
[11] = Staphylococcus epidermidis, ATCC 27626 / MRSE, Example 4, ATCC 27626, di-trifluoroacetate salts, highest concentration tested 200 μg/ml
[12] = Staphylococcus aureus, ATCC33591, Example 4, ATCC 33591, di-trifluoroacetate salts, highest concentration tested 200 μg/ml

Compound | proteolytic stability against α-chymotrypsin (α-chymotrypsin) | MIC MRSA ([5]; ATCC 33591) [µM] | MIC ([1]; ATTC 25922) [µM] | MIC ([3]; ATTC 25923) [µM] | MIC ([4]; ATCC 27626) [µM] | MIC [6] | MIC [1, 8] [µM] | permeability, model's classification of absorption [2, 9] | MIC [3, 10] [µM] | MIC [4, 11] [µM] | MIC [5, 12] [µM] | MBC E. coli ([1]; ATTC 25922) [µM] | MBC S. aureus ([3]; ATTC 25923) [µM] | MBC MRSE ([4]; ATCC 27626) [µM] | MBC MRSA ([5]; ATCC 33591) [µM] | EC50 (human red blood cells; [7]) [µM] | Therapeutic index E. coli ([1]; EC50 RBC divided by MIC) | Therapeutic index S. aureus ([3]; EC50 RBC divided by MIC) | Therapeutic index MRSE ([4]; EC50 RBC divided by MIC) | Therapeutic index MRSA ([5]; EC50 RBC divided by MIC) | other results
CN(C)CCN1CCN(C(=O)C(CN)(Cc2ccc3ccccc3c2)Cc2ccc3ccccc3c2)CC1 [Compound 4c] | no degradation could be detected | 7.2 (≈ 3.66 µg/mL) | – | – | – | – | – | – | – | – | – | 289 (≈ 147 µg/mL) | 7.2 (≈ 3.66 µg/mL) | 7.2 (≈ 3.66 µg/mL) | 7.2 (≈ 3.66 µg/mL) | – | – | – | – | – | EC50 RBC (human red blood cells; Example 1, 50% hemolysis of human red blood cells, highest concentration tested 1000 μg/ml): — (The notation “—”denotes no detectable activity (MIC or EC50) within the concentration range tested.); EC50 (human red blood cells; red cells of human): 409 µM; Therapeutic index E. coli ([1]; ATTC 25922): 8.5; permeability, model's classification of absorption ([2]; not told): moderately absorbed in humans; Therapeutic index S. aureus ([3]; ATTC 25923): 20; Therapeutic index MRSE ([4]; ATCC 27626): 29; Therapeutic index MRSA ([5]; ATCC 33591): 120; MIC ([5]; ATCC 33591): 3.4 µM (≈ 1.73 µg/mL)
N=C(N)NCCC[C@H](NC(=O)C(CN)(Cc1ccc2ccccc2c1)Cc1ccc2ccccc2c1)C(N)=O [Compound 4g] | no degradation could be detected | 5.0 (≈ 2.62 µg/mL) | 266 (≈ 140 µg/mL) | 6.6 (≈ 3.46 µg/mL) | 6.6 (≈ 3.46 µg/mL) | – | – | – | – | – | – | 266 (≈ 140 µg/mL) | 6.6 (≈ 3.46 µg/mL) | 6.6 (≈ 3.46 µg/mL) | 5.3 (≈ 2.78 µg/mL) | – | – | – | – | – | EC50 (human red blood cells; red cells of human): 470 µM
Cc1ccc(CC(CN)(Cc2ccc(C)cc2)C(=O)N[C@@H](CCCNC(=N)N)C(N)=O)cc1 [Compound 4h] | no degradation could be detected | 74 (≈ 33.5 µg/mL) | – | 147 (≈ 66.5 µg/mL) | 74 (≈ 33.5 µg/mL) | – | – | – | – | – | – | >294 | 147 (≈ 66.5 µg/mL) | 110 (≈ 49.8 µg/mL) | 110 (≈ 49.8 µg/mL) | – | – | – | – | – | –
N=C(N)NCCC[C@H](NC(=O)C(CN)(Cc1ccc(C(F)(F)F)cc1)Cc1ccc(C(F)(F)F)cc1)C(N)=O [Compound 4i] | no degradation could be detected | 3.2 (≈ 1.79 µg/mL) | 254 (≈ 142 µg/mL) | 12.7 (≈ 7.12 µg/mL) | 12.7 (≈ 7.12 µg/mL) | – | – | – | – | – | – | >254 | 12.7 (≈ 7.12 µg/mL) | 12.7 (≈ 7.12 µg/mL) | 6.3 (≈ 3.53 µg/mL) | – | – | – | – | – | –
CC(C)(C)c1ccc(CC(CN)(Cc2ccc(C(C)(C)C)cc2)C(=O)N[C@@H](CCCNC(=N)N)C(N)=O)cc1 [Compound 4k] | no degradation could be detected | 3.3 (≈ 1.77 µg/mL) | 46 (≈ 24.7 µg/mL) | 6.5 (≈ 3.49 µg/mL) | 5.0 (≈ 2.68 µg/mL) | – | – | – | – | – | – | 46 (≈ 24.7 µg/mL) | 6.5 (≈ 3.49 µg/mL) | 5.2 (≈ 2.79 µg/mL) | 6.5 (≈ 3.49 µg/mL) | – | – | – | – | – | –
COc1cc(CC(CN)(Cc2cc(OC)cc(OC)c2)C(=O)N[C@@H](CCCNC(=N)N)C(N)=O)cc(OC)c1 [Compound 4m] | no degradation could be detected | 259 (≈ 141 µg/mL) | – | 259 (≈ 141 µg/mL) | 129 (≈ 70.3 µg/mL) | – | – | – | – | – | – | >259 | >259 | 129 (≈ 70.3 µg/mL) | 259 (≈ 141 µg/mL) | – | – | – | – | – | –

Second part, led by results:

proteolytic stability against α-chymotrypsin (α-chymotrypsin) | MIC MRSA ([5]; ATCC 33591) [µM] | MIC ([1]; ATTC 25922) [µM] | MIC ([3]; ATTC 25923) [µM] | MIC ([4]; ATCC 27626) [µM] | MIC [6] | MIC [1, 8] [µM] | permeability, model's classification of absorption [2, 9] | MIC [3, 10] [µM] | MIC [4, 11] [µM] | MIC [5, 12] [µM] | Compound | MBC E. coli ([1]; ATTC 25922) [µM] | MBC S. aureus ([3]; ATTC 25923) [µM] | MBC MRSE ([4]; ATCC 27626) [µM] | MBC MRSA ([5]; ATCC 33591) [µM] | EC50 (human red blood cells; [7]) [µM] | Therapeutic index E. coli ([1]; EC50 RBC divided by MIC) | Therapeutic index S. aureus ([3]; EC50 RBC divided by MIC) | Therapeutic index MRSE ([4]; EC50 RBC divided by MIC) | Therapeutic index MRSA ([5]; EC50 RBC divided by MIC) | other results
– | – | – | – | – | > 200 µg/mL | 22 | moderately absorbed in humans | 15 | 15 | 7.4 | CN1CCN(C(=O)C(CN)(Cc2ccc3ccccc3c2)Cc2ccc3ccccc3c2)CC1 [Entry 5c] | – | – | – | – | 303 | 14 | 20 | 20 | 41 | experimental permeability values, rank ([2]; among 4c, 5c, 6c and 7c): highest permeability
– | – | – | – | – | 300 µM | 23 | moderately absorbed in humans | 7.5 | 7.5 | 7.5 | CN(C)CCNC(=O)C(CN)(Cc1ccc2ccccc2c1)Cc1ccc2ccccc2c1 [Entry 6c] | – | – | – | – | 117 | 5.1 | 16 | 16 | 16 | Therapeutic index P. aeruginosa [6]: 0.4
– | – | – | – | – | 55 µM | 24 | moderately absorbed in humans | 3.9 | 3.9 | 7.8 | NCCNC(=O)C(CN)(Cc1ccc2ccccc2c1)Cc1ccc2ccccc2c1 [Entry 7c] | – | – | – | – | 457 | 19 | 117 | 117 | 59 | Therapeutic index P. aeruginosa [6]: 8.3
